Assay in all cases: AK assay 384-well format, Prestwick library screening
One assay concerns E. faecium. Format: cell-based, Enterococcus faecium. Particulars: Enterococcus faecium, 3 h, 50 μM final drug concentration.
Assay [1] has as its system S. aureus strain USA300-0114. Format: cell-based, Staphylococcus aureus. Particulars: Staphylococcus aureus, USA300, 3 h, 50 μM final drug concentration.
A further assay relates to K. pneumoniae. It is filed as cell-based, Klebsiella pneumoniae. Particulars: Klebsiella pneumoniae, 3 h, 50 μM final drug concentration.
Assay [2] relates to A. baumannii strain 98-37-09. It is filed as cell-based, Acinetobacter baumannii. Particulars: Acinetobacter baumannii, 983709, 3 h, 50 μM final drug concentration.
The test system of the next assay is P. aeruginosa. Format: cell-based, Pseudomonas aeruginosa. Particulars: Pseudomonas aeruginosa, 3 h, 50 μM final drug concentration.
The subject of the next assay is E. cloacae. Format: cell-based, Enterobacter cloacae. Particulars: Enterobacter cloacae, 3 h, 50 μM final drug concentration.
The test system of the next assay is E. coli. Format: cell-based, Escherichia coli. Particulars: Escherichia coli, 3 h, 50 μM final drug concentration.

Experimental findings from US10004701B2, “Methods and compositions for treating infection” (UNIVERSITY OF ROCHESTER, priority 2012, dated 2018) are described below.

Counter-ions that a name gives are not always drawn. Like-named read-outs stand apart in the source and are kept apart here.

`COc1ccc(CN(CCN(C)C)c2ccccn2)cc1` [Pyrilamine maleate]: the fold induction at 50 µM amounted to 1.2 in the assay with E. faecium (planktonic E. faecium, 384-well, […], read-out: AK-based Prestwick Library Screening Results: E. faecium (increase in extracellular AK activity)); 1.4 in assay [1] (planktonic S. aureus, 384-well, […], read-out: AK-based Prestwick Library Screening Results: S. aureus (increase in extracellular AK activity)); 1 with K. pneumoniae (planktonic K. pneumoniae, 384-well, […], read-out: AK-based Prestwick Library Screening Results: K. pneumoniae (increase in extracellular AK activity)); 1.1 in assay [2] (planktonic A. baumannii, 384-well, […], read-out: AK-based Prestwick Library Screening Results: A. baumannii (increase in extracellular AK activity)); 1.1 in the assay with P. aeruginosa (planktonic P. aeruginosa, 384-well, […], read-out: AK-based Prestwick Library Screening Results: P. aeruginosa (increase in extracellular AK activity)); 1.4 in the assay with E. cloacae (planktonic E. cloacae, 384-well, […], read-out: AK-based Prestwick Library Screening Results: E. cloacae (increase in extracellular AK activity)). For the same molecule, the fold induction at 50 µM in the assay on E. coli (planktonic E. coli, 384-well, […], read-out: AK-based Prestwick Library Screening Results: E. coli (increase in extracellular AK activity)) was found to be 1.4.

On to `CCc1nc(N)nc(N)c1-c1ccc(Cl)cc1` [Pyrimethamine], for which the fold induction at 50 µM in the assay on E. faecium (384-well format, cutoff for positive-scoring molecules 3-fold increase, read-out: AK-based Prestwick Library Screening Results, E. faecium (increase in extracellular AK activity)) turned out to be 1; in assay [1] (384-well format, cutoff for positive-scoring molecules 3-fold increase, read-out: AK-based Prestwick Library Screening Results, S. aureus (increase in extracellular AK activity)) it was 0.7; in the assay on K. pneumoniae (384-well format, cutoff for positive-scoring molecules 3-fold increase, read-out: AK-based Prestwick Library Screening Results, K. pneumoniae (increase in extracellular AK activity)) it was 0.7; in assay [2] (384-well format, cutoff for positive-scoring molecules 3-fold increase, read-out: AK-based Prestwick Library Screening Results, A. baumannii (increase in extracellular AK activity)), 2.5; with P. aeruginosa (384-well format, cutoff for positive-scoring molecules 3-fold increase, read-out: AK-based Prestwick Library Screening Results, P. aeruginosa (increase in extracellular AK activity)), 0.9; in the assay on E. cloacae (384-well format, cutoff for positive-scoring molecules 3-fold increase, read-out: AK-based Prestwick Library Screening Results, E. cloacae (increase in extracellular AK activity)), 1.3. In addition, the fold induction at 50 µM in the assay with E. coli (384-well format, cutoff for positive-scoring molecules 3-fold increase, read-out: AK-based Prestwick Library Screening Results, E. coli (increase in extracellular AK activity)) came to 1.4.

With `CCC1(CC)C(=O)C=CNC1=O` [Pyrithyldione], the fold induction at 50 µM worked out at 0.8 in the assay on E. faecium (planktonic, […], read-out: AK-based Prestwick Library Screening Results, E. faecium (fold increase in extracellular AK activity)); 0.6 in assay [1] (planktonic, […], read-out: AK-based Prestwick Library Screening Results, S. aureus (fold increase in extracellular AK activity)); 0.6 with K. pneumoniae (planktonic, […], read-out: AK-based Prestwick Library Screening Results, K. pneumoniae (fold increase in extracellular AK activity)); 0.5 in assay [2] (planktonic, […], read-out: AK-based Prestwick Library Screening Results, A. baumannii (fold increase in extracellular AK activity)); 0.6 in the assay on P. aeruginosa (planktonic, […], read-out: AK-based Prestwick Library Screening Results, P. aeruginosa (fold increase in extracellular AK activity)); 0.7 in the assay on E. cloacae (planktonic, […], read-out: AK-based Prestwick Library Screening Results, E. cloacae (fold increase in extracellular AK activity)). Further, the fold induction at 50 µM in the assay on E. coli (planktonic, […], read-out: AK-based Prestwick Library Screening Results, E. coli (fold increase in extracellular AK activity)) stood at 0.7.

As for `Cc1cc(/C=C/c2ccc3cc(N(C)C)ccc3[n+]2C)c(C)n1-c1ccccc1` [Pyrvinium pamoate], the fold induction at 50 µM in the assay with E. faecium (planktonic E. faecium, positive cutoff 3-fold increase, read-out: AK-based Prestwick library screening result, E. faecium (fold increase in extracellular AK activity)) amounted to 1.5; in assay [1] (planktonic S. aureus, positive cutoff 3-fold increase, read-out: AK-based Prestwick library screening result, S. aureus (fold increase in extracellular AK activity)), 1.4; with K. pneumoniae (planktonic K. pneumoniae, positive cutoff 3-fold increase, read-out: AK-based Prestwick library screening result, K. pneumoniae (fold increase in extracellular AK activity)) it was 0.8; in assay [2] (planktonic A. baumannii, positive cutoff 3-fold increase, read-out: AK-based Prestwick library screening result, A. baumannii (fold increase in extracellular AK activity)), 0.9; with P. aeruginosa (planktonic P. aeruginosa, positive cutoff 3-fold increase, read-out: AK-based Prestwick library screening result, P. aeruginosa (fold increase in extracellular AK activity)) it was 0.7; with E. cloacae (planktonic E. cloacae, positive cutoff 3-fold increase, read-out: AK-based Prestwick library screening result, E. cloacae (fold increase in extracellular AK activity)), 13.2. In addition, the fold induction at 50 µM with E. coli (planktonic E. coli, positive cutoff 3-fold increase, read-out: AK-based Prestwick library screening result, E. coli (fold increase in extracellular AK activity)) is 0.8.

Regarding `O=c1c(O)c(-c2ccc(O)c(O)c2)oc2cc(O)cc(O)c12` [Quercetine dihydrate], the fold induction at 50 µM with E. faecium (planktonic E. faecium, […], read-out: AK-based Prestwick Library Screening Results, E. faecium (increase in extracellular AK activity)) came out at 0.8; in assay [1] (planktonic S. aureus, […], read-out: AK-based Prestwick Library Screening Results, S. aureus (increase in extracellular AK activity)), 0.1; with K. pneumoniae (planktonic K. pneumoniae, […], read-out: AK-based Prestwick Library Screening Results, K. pneumoniae (increase in extracellular AK activity)) it was 0.6; in assay [2] (planktonic A. baumannii, […], read-out: AK-based Prestwick Library Screening Results, A. baumannii (increase in extracellular AK activity)) it was 0.4; in the assay with P. aeruginosa (planktonic P. aeruginosa, […], read-out: AK-based Prestwick Library Screening Results, P. aeruginosa (increase in extracellular AK activity)), 0.6; in the assay on E. cloacae (planktonic E. cloacae, […], read-out: AK-based Prestwick Library Screening Results, E. cloacae (increase in extracellular AK activity)) it was 0.9. In addition, the fold induction at 50 µM in the assay with E. coli (planktonic E. coli, […], read-out: AK-based Prestwick Library Screening Results, E. coli (increase in extracellular AK activity)) came out at 0.7.

Consider `CCN(CC)CCCC(C)Nc1c2ccc(Cl)cc2nc2ccc(OC)cc12` (stereo not shown) [Quinacrine dihydrochloride dihydrate], for which the fold induction at 50 µM in the assay with E. faecium (planktonic E. faecium, 384-well, cutoff for positive-scoring molecules 3-fold increase, read-out: AK-based Prestwick Library Screening Results: E. faecium (increase in extracellular AK activity)) stood at 1; in assay [1] (planktonic S. aureus, 384-well, cutoff for positive-scoring molecules 3-fold increase, read-out: AK-based Prestwick Library Screening Results: S. aureus (increase in extracellular AK activity)) it was 1.2; in the assay with K. pneumoniae (planktonic K. pneumoniae, 384-well, cutoff for positive-scoring molecules 3-fold increase, read-out: AK-based Prestwick Library Screening Results: K. pneumoniae (increase in extracellular AK activity)), 1; in assay [2] (planktonic A. baumannii, 384-well, cutoff for positive-scoring molecules 3-fold increase, read-out: AK-based Prestwick Library Screening Results: A. baumannii (increase in extracellular AK activity)) it was 1.3; with P. aeruginosa (planktonic P. aeruginosa, 384-well, cutoff for positive-scoring molecules 3-fold increase, read-out: AK-based Prestwick Library Screening Results: P. aeruginosa (increase in extracellular AK activity)), 0.9; in the assay on E. cloacae (planktonic E. cloacae, 384-well, cutoff for positive-scoring molecules 3-fold increase, read-out: AK-based Prestwick Library Screening Results: E. cloacae (increase in extracellular AK activity)) it was 1.4. Also, the fold induction at 50 µM in the assay with E. coli (planktonic E. coli, 384-well, cutoff for positive-scoring molecules 3-fold increase, read-out: AK-based Prestwick Library Screening Results: E. coli (increase in extracellular AK activity)) is 1.2.

For the molecule `CCOC(=O)[C@H](CCc1ccccc1)N[C@@H](C)C(=O)N1Cc2ccccc2C[C@H]1C(=O)O` [Quinapril HCl], the fold induction at 50 µM was found to be 1.1 in the assay with E. faecium (cutoff for positive-scoring molecules 3-fold increase, read-out: AK-based Prestwick Library Screening Results, E. faecium (fold increase in extracellular AK activity)); 1.2 in assay [1] (cutoff for positive-scoring molecules 3-fold increase, read-out: AK-based Prestwick Library Screening Results, S. aureus (fold increase in extracellular AK activity)); 1 in the assay on K. pneumoniae (cutoff for positive-scoring molecules 3-fold increase, read-out: AK-based Prestwick Library Screening Results, K. pneumoniae (fold increase in extracellular AK activity)); 1.2 in assay [2] (cutoff for positive-scoring molecules 3-fold increase, read-out: AK-based Prestwick Library Screening Results, A. baumannii (fold increase in extracellular AK activity)); 1.2 in the assay on P. aeruginosa (cutoff for positive-scoring molecules 3-fold increase, read-out: AK-based Prestwick Library Screening Results, P. aeruginosa (fold increase in extracellular AK activity)); 1.6 with E. cloacae (cutoff for positive-scoring molecules 3-fold increase, read-out: AK-based Prestwick Library Screening Results, E. cloacae (fold increase in extracellular AK activity)). Further, the fold induction at 50 µM with E. coli (cutoff for positive-scoring molecules 3-fold increase, read-out: AK-based Prestwick Library Screening Results, E. coli (fold increase in extracellular AK activity)) came to 1.2.
